Laboratory results published in the NIST ThermoML archive (doi:10.1016/j.jct.2011.08.016).

Assay: xn = mol fraction of the nth substance listed
Conditions: Liquid, Vibrating tube method

CCCCCCCCCC [decane] + CCCCCCCC
Conditions | mass density [kg/m3]
343.11 K, 1000 kPa, x2 = 0.0616 | 691.23
343.11 K, 2000 kPa, x2 = 0.0616 | 692.25
343.11 K, 3000 kPa, x2 = 0.0616 | 693.27
343.11 K, 4000 kPa, x2 = 0.0616 | 694.28
343.11 K, 5000 kPa, x2 = 0.0616 | 695.27
343.11 K, 6000 kPa, x2 = 0.0616 | 696.28
343.11 K, 7000 kPa, x2 = 0.0616 | 697.25
343.11 K, 8000 kPa, x2 = 0.0616 | 698.24
343.11 K, 9000 kPa, x2 = 0.0616 | 699.21
343.11 K, 10000 kPa, x2 = 0.0616 | 700.15
343.11 K, 10990 kPa, x2 = 0.0616 | 701.09
343.11 K, 12000 kPa, x2 = 0.0616 | 702.04
343.11 K, 13000 kPa, x2 = 0.0616 | 702.94
343.11 K, 14000 kPa, x2 = 0.0616 | 703.83
343.11 K, 15000 kPa, x2 = 0.0616 | 704.71
343.11 K, 16000 kPa, x2 = 0.0616 | 705.59
343.11 K, 17000 kPa, x2 = 0.0616 | 706.44
343.11 K, 18000 kPa, x2 = 0.0616 | 707.29
343.11 K, 19000 kPa, x2 = 0.0616 | 708.13
343.11 K, 20000 kPa, x2 = 0.0616 | 708.97
343.11 K, 21000 kPa, x2 = 0.0616 | 709.77
343.11 K, 22000 kPa, x2 = 0.0616 | 710.54
343.11 K, 23000 kPa, x2 = 0.0616 | 711.34
343.11 K, 24000 kPa, x2 = 0.0616 | 712.11
343.11 K, 25000 kPa, x2 = 0.0616 | 712.86
343.12 K, 1000 kPa, x2 = 0.2801 | 686
343.12 K, 1000 kPa, x2 = 0.5314 | 678.98
343.12 K, 1000 kPa, x2 = 0.7736 | 671.23
343.12 K, 2000 kPa, x2 = 0.2801 | 686.96
343.12 K, 2000 kPa, x2 = 0.5314 | 680.05
343.12 K, 2000 kPa, x2 = 0.7736 | 672.36
343.12 K, 3000 kPa, x2 = 0.2801 | 688
343.12 K, 3000 kPa, x2 = 0.5314 | 681.13
343.12 K, 3000 kPa, x2 = 0.7736 | 673.44
343.12 K, 4000 kPa, x2 = 0.2801 | 689.01
343.12 K, 4000 kPa, x2 = 0.5314 | 682.2
343.12 K, 4000 kPa, x2 = 0.7736 | 674.54
343.12 K, 5000 kPa, x2 = 0.2801 | 690.04
343.12 K, 5000 kPa, x2 = 0.5314 | 683.26
343.12 K, 5000 kPa, x2 = 0.7736 | 675.64
343.12 K, 6000 kPa, x2 = 0.2801 | 691.09
343.12 K, 6000 kPa, x2 = 0.5314 | 684.32
343.12 K, 6000 kPa, x2 = 0.7736 | 676.76
343.12 K, 7000 kPa, x2 = 0.2801 | 692.03
343.12 K, 7000 kPa, x2 = 0.5314 | 685.36
343.12 K, 7000 kPa, x2 = 0.7736 | 677.83
343.12 K, 8000 kPa, x2 = 0.2801 | 693.02
343.12 K, 8000 kPa, x2 = 0.5314 | 686.38
343.12 K, 8000 kPa, x2 = 0.7736 | 678.88
343.12 K, 9000 kPa, x2 = 0.2801 | 694
343.12 K, 9000 kPa, x2 = 0.5314 | 687.39
343.12 K, 9000 kPa, x2 = 0.7736 | 679.92
343.12 K, 10000 kPa, x2 = 0.2801 | 694.95
343.12 K, 10000 kPa, x2 = 0.5314 | 688.38
343.12 K, 10000 kPa, x2 = 0.7736 | 680.93
343.12 K, 10990 kPa, x2 = 0.2801 | 695.95
343.12 K, 10990 kPa, x2 = 0.5314 | 689.37
343.12 K, 10990 kPa, x2 = 0.7736 | 681.98
343.12 K, 12000 kPa, x2 = 0.2801 | 696.9
343.12 K, 12000 kPa, x2 = 0.5314 | 690.34
343.12 K, 12000 kPa, x2 = 0.7736 | 682.98
343.12 K, 13000 kPa, x2 = 0.2801 | 697.84
343.12 K, 13000 kPa, x2 = 0.5314 | 691.29
343.12 K, 13000 kPa, x2 = 0.7736 | 683.94
343.12 K, 14000 kPa, x2 = 0.2801 | 698.78
343.12 K, 14000 kPa, x2 = 0.5314 | 692.24
343.12 K, 14000 kPa, x2 = 0.7736 | 684.91
343.12 K, 15000 kPa, x2 = 0.2801 | 699.72
343.12 K, 15000 kPa, x2 = 0.5314 | 693.17
343.12 K, 15000 kPa, x2 = 0.7736 | 685.89
343.12 K, 16000 kPa, x2 = 0.2801 | 700.6
343.12 K, 16000 kPa, x2 = 0.5314 | 694.09
343.12 K, 16000 kPa, x2 = 0.7736 | 686.84
343.12 K, 17000 kPa, x2 = 0.2801 | 701.51
343.12 K, 17000 kPa, x2 = 0.5314 | 695
343.12 K, 17000 kPa, x2 = 0.7736 | 687.8
343.12 K, 18000 kPa, x2 = 0.2801 | 702.35
343.12 K, 18000 kPa, x2 = 0.5314 | 695.89
343.12 K, 18000 kPa, x2 = 0.7736 | 688.72
343.12 K, 19000 kPa, x2 = 0.2801 | 703.17
343.12 K, 19000 kPa, x2 = 0.5314 | 696.76
343.12 K, 19000 kPa, x2 = 0.7736 | 689.61
343.12 K, 20000 kPa, x2 = 0.2801 | 704.02
343.12 K, 20000 kPa, x2 = 0.5314 | 697.62
343.12 K, 20000 kPa, x2 = 0.7736 | 690.48
343.12 K, 21000 kPa, x2 = 0.2801 | 704.83
343.12 K, 21000 kPa, x2 = 0.5314 | 698.47
343.12 K, 21000 kPa, x2 = 0.7736 | 691.35
343.12 K, 22000 kPa, x2 = 0.2801 | 705.63
343.12 K, 22000 kPa, x2 = 0.5314 | 699.29
343.12 K, 22000 kPa, x2 = 0.7736 | 692.2
343.12 K, 23000 kPa, x2 = 0.2801 | 706.41
343.12 K, 23000 kPa, x2 = 0.5314 | 700.11
